Measured values reported in US11279701B2, “Immunomodulators and immunomodulator conjugates” (REGENTS OF THE UNIVERSITY OF MINNESOTA, priority 2016, dated 2022).

Assays:
human TLR-7 = target: T1, human TLR-7 (Homo sapiens, UniProt Q9NYK1); assay: TLR7/8-NF-κB Reporter Assay (HEK SEAP Reporter Assay), HEK-TLR-7 cells; format: cell-based; conditions: HEK cells stably transfected with human TLR-7 and NF-κB-responsive SEAP gene, 24 h
T1 construct: host or cells: HEK cells stably transfected with human TLR-7 and an NF-κB-responsive SEAP reporter (HEK-TLR-7)
T1 sequence (Q9NYK1 27-1049): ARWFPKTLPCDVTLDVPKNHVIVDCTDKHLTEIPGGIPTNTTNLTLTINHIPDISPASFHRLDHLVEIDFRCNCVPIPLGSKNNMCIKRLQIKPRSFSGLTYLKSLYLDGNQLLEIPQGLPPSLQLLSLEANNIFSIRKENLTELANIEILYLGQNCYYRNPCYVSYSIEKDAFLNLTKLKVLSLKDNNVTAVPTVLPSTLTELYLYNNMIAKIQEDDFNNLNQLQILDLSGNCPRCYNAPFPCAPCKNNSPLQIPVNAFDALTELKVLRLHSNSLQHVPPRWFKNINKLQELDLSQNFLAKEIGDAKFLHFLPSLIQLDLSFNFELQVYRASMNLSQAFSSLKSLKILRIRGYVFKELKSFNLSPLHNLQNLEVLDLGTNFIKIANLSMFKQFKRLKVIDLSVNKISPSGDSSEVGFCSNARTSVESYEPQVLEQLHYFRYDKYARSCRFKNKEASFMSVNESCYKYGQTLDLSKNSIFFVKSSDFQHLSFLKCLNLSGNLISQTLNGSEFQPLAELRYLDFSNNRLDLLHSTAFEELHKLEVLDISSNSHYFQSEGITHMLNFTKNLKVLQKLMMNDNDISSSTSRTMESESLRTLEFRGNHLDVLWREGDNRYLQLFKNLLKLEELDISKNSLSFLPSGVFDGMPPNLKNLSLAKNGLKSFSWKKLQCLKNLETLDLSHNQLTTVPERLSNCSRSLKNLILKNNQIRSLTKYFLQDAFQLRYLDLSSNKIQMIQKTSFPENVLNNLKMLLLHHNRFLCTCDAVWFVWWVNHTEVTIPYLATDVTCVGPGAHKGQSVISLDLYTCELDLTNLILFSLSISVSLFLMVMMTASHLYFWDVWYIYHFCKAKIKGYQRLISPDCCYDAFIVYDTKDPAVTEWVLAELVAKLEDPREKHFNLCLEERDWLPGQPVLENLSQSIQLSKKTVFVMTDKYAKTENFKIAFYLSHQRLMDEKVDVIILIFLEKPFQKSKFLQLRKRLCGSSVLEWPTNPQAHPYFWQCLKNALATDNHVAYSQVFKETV

human TLR-8 = target: T2, human TLR-8 (Homo sapiens, UniProt Q9NR97); assay: TLR7/8-NF-κB Reporter Assay (HEK SEAP Reporter Assay), HEK-TLR-8 cells; format: cell-based; conditions: HEK cells stably transfected with human TLR-8 and NF-κB-responsive SEAP gene, 24 h
T2 construct: host or cells: HEK cells stably transfected with human TLR-8 and an NF-κB-responsive SEAP reporter (HEK-TLR-8)
T2 sequence (Q9NR97 27-1041): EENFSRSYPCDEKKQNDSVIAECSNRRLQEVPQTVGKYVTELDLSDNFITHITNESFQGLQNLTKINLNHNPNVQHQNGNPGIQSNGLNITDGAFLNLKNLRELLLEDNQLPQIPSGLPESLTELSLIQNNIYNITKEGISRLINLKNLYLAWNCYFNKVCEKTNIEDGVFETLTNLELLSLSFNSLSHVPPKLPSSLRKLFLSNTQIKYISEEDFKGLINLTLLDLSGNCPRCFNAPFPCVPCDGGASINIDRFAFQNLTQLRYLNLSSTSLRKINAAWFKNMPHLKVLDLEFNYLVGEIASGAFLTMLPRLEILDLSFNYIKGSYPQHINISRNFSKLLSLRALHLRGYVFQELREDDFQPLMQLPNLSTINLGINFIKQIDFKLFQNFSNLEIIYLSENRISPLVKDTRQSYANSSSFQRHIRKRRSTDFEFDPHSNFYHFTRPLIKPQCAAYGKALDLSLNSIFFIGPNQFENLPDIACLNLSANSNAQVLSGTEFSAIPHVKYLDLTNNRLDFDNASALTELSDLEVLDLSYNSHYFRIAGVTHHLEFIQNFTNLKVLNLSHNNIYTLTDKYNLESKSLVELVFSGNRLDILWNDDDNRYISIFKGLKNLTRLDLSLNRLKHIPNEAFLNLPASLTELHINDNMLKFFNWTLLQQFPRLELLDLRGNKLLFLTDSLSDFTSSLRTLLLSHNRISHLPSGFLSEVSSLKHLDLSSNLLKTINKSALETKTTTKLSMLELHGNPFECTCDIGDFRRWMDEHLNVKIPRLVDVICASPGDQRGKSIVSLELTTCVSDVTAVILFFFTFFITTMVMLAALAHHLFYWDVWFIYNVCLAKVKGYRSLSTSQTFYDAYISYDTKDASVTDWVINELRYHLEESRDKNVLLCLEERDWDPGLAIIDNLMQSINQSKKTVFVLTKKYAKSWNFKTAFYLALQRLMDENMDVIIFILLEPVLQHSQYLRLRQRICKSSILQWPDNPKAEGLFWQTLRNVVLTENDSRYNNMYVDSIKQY

Compound | EC50 (human TLR-7) | EC50 (human TLR-8)
CCCCc1nc2c(N)nc3cc(C(=O)OC)ccc3c2n1CCCN [Compound 572] |  | 66000 nM
CCCCc1nc2c(N)nc3cc(C(=O)OC)ccc3c2n1CCCCCN [Compound 574] | 600 nM | 2200 nM
CCCCc1nc2c(N)nc3cc(C(=O)OC)ccc3c2n1CCSC [Compound 563] | 2900 nM | 
CCCCc1nc2c(N)nc3cc(C(=O)OC)ccc3c2n1CCCSC [Compound 564] | 3800 nM | 
CCCCc1nc2c(N)nc3cc(C(=O)OC)ccc3c2n1CCCCC(=O)OC [Compound 569] | 1740 nM | 
4-amino-2-butyl-1-(2-hydroxypropyl)-7-benzenesulphonyl-1H-imidazo[4,5-c]quinoline [Compound 548] | 1530 nM | 290 nM
CCCCc1nc2c(N)nc3cc(C(=O)OC)ccc3c2n1CCCC(=O)OC [Compound 568] | 4500 nM | 

The remaining lines, values ahead:

EC50 (human TLR-7) | EC50 (human TLR-8) | Compound
6700 nM |  | CCCCc1nc2c(N)nc3cc(C(=O)OC)ccc3c2n1CCSCC [Compound 565]
3300 nM |  | CCCCc1nc2c(N)nc3cc(C(=O)OC)ccc3c2n1CC(=O)OC [Compound 566]
 | 3850 nM | CCCCc1nc2c(N)nc3cc(C(=O)OC)ccc3c2n1CCCCN [Compound 573]
3600 nM |  | CCCCc1nc2c(N)nc3cc(C(=O)OC)ccc3c2n1CCC(=O)OC [Compound 567]
2900 nM |  | CCCCc1nc2c(N)nc3cc(C(=O)OC)ccc3c2n1CCCCCC(=O)OC [Compound 570]
420 nM | 240 nM | CCCCc1nc2c(N)nc3cc(C(=O)OC)ccc3c2n1CCCNS(=O)(=O)c1ccccc1 [Compound 544]
189000 nM |  | CCCCc1nc2c(N)nc3cc(C(=O)OC)ccc3c2n1Cc1ccc(C(=O)O)cc1 [Compound 556]
